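1) Cells in 96-well plates. 2) Compound, 48 h, 5 concentrations. 3) Linear interpolation between surrounding doses. 4) Unreached endpoint = highest concentration. The concentration for full growth arrest is given as TGI.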
Experiments:
Assay in all cases: DTP human tumour cell line panel, 48 h
NCI-H226 lung = tested on: NCI-H226 lung
MALME-3M melanoma = tested on: MALME-3M melanoma
CCRF-CEM leukemia = tested on: CCRF-CEM leukemia
LOX IMVI melanoma = tested on: LOX IMVI melanoma
SNB-19 CNS = tested on: SNB-19 CNS
786-0 renal = tested on: 786-0 renal
OVCAR-4 ovarian = tested on: OVCAR-4 ovarian
KM12 colon = tested on: KM12 colon
A549 NSCLC = tested on: A549 NSCLC
K-562 leukemia = tested on: K-562 leukemia
M19-MEL melanoma = tested on: M19-MEL melanoma
HOP-18 NSCLC = tested on: HOP-18 NSCLC
IGROV1 ovarian = tested on: IGROV1 ovarian
NCI-H23 lung = tested on: NCI-H23 lung
M14 melanoma = tested on: M14 melanoma
KM20L2 colon = tested on: KM20L2 colon
SF-539 CNS = tested on: SF-539 CNS
DLD-1 colon = tested on: DLD-1 colon
SK-MEL-2 melanoma = tested on: SK-MEL-2 melanoma
MOLT-4 leukemia = tested on: MOLT-4 leukemia
HT29 colon = tested on: HT29 colon
XF 498 CNS = tested on: XF 498 CNS
RXF-631 renal = tested on: RXF-631 renal
OVCAR-5 ovarian = tested on: OVCAR-5 ovarian
NCI-H460 lung = tested on: NCI-H460 lung
HCC-2998 colon = tested on: HCC-2998 colon
DMS 273 small cell lung = tested on: DMS 273 small cell lung
A498 renal = tested on: A498 renal
EKVX NSCLC = tested on: EKVX NSCLC
HL-60(TB) leukemia = tested on: HL-60(TB) leukemia
U251 CNS = tested on: U251 CNS
SK-MEL-5 melanoma = tested on: SK-MEL-5 melanoma
SW-620 colon = tested on: SW-620 colon
UACC-257 melanoma = tested on: UACC-257 melanoma
ACHN renal = tested on: ACHN renal
UACC-62 melanoma = tested on: UACC-62 melanoma
UO-31 renal = tested on: UO-31 renal
OVCAR-3 ovarian = tested on: OVCAR-3 ovarian
SN12C renal = tested on: SN12C renal
NCI-H522 lung = tested on: NCI-H522 lung
CAKI-1 renal = tested on: CAKI-1 renal
SK-OV-3 ovarian = tested on: SK-OV-3 ovarian
LXFL 529 NSCLC = tested on: LXFL 529 NSCLC
RXF 393 renal = tested on: RXF 393 renal
SK-MEL-28 melanoma = tested on: SK-MEL-28 melanoma
SF-268 CNS = tested on: SF-268 CNS
TK-10 renal = tested on: TK-10 renal
SF-295 CNS = tested on: SF-295 CNS
RPMI-8226 leukemia = tested on: RPMI-8226 leukemia
SNB-75 CNS = tested on: SNB-75 CNS
COLO 205 colon = tested on: COLO 205 colon
OVCAR-8 ovarian = tested on: OVCAR-8 ovarian
HOP-92 NSCLC = tested on: HOP-92 NSCLC
HCT-15 colon = tested on: HCT-15 colon
HOP-62 NSCLC = tested on: HOP-62 NSCLC
DMS 114 small cell lung = tested on: DMS 114 small cell lung

Measured: TGI

Cc1ccc(S(=O)(=O)N[C@H](C(=O)O)c2ccccc2)cc1
not listed: HOP-62 NSCLC | DMS 114 small cell lung
> 100 µM: all other assays above

Cc1cn(Cc2ccccc2CCO)c(=S)[nH]c1=O
not listed: DLD-1 colon | HCC-2998 colon
> 100 µM: all other assays above

Reference: PubChem BioAssay (NCI)
